Reference: ChEMBL document CHEMBL3885881, “DrugMatrix”

Organism: Rattus norvegicus
Test: DrugMatrix - Regimen: Daily Repeat
Type: toxicity, organism-based, Sprague-Dawley
Design: regimen Daily Repeat, gender Male, age 6-8 weeks
Settings: in vivo, po, route oral GAVAGE, vehicle .5 % CMC; for ABSOLUTE BASOPHIL / ABSOLUTE EOSINOPHIL / ABSOLUTE LYMPHOCYTE / ABSOLUTE MONOCYTE / ABSOLUTE SEGMENTED NEUTROPHIL / BASOPHIL / EOSINOPHIL / ERYTHROCYTE COUNT / HEMATOCRIT / HEMOGLOBIN / LEUKOCYTE COUNT / LYMPHOCYTE / MEAN CORPUSCULAR HEMOGLOBIN / MEAN CORPUSCULAR HEMOGLOBIN CONCENTRATION / MEAN CORPUSCULAR VOLUME / MONOCYTE / NEUTROPHIL / NUCLEATED RED BLOOD CELLS / PLATELET COUNT: tissue Blood; for ALANINE AMINOTRANSFERASE / ALBUMIN / ALKALINE PHOSPHATASE / ASPARTATE AMINOTRANSFERASE / BLOOD UREA NITROGEN / CARBON DIOXIDE / CHLORIDE / CHOLESTEROL / CREATINE PHOSPHOKINASE / CREATININE / GLUCOSE / LACTATE DEHYDROGENASE / LIPASE / PHOSPHORUS / POTASSIUM / SODIUM / TOTAL BILIRUBIN / TOTAL PROTEIN / URIC ACID: tissue Plasma
[1] = 300 mg/kg, 72 h, dose level M1, time 3 day
[2] = 300 mg/kg, 120 h, dose level M1, time 5 day
[3] = 1100 mg/kg, 72 h, dose level High, time 3 day
[4] = 1100 mg/kg, 120 h, dose level High, time 5 day

Question: What does the source list for `COc1ccc(/C=C/C(=O)Nc2ccccc2C(=O)O)cc1OC`?
Answer: ABSOLUTE BASOPHIL [1]: 0 CELLS/uL; ABSOLUTE EOSINOPHIL [1]: 0 CELLS/uL; ABSOLUTE LYMPHOCYTE [1]: 15435.67 CELLS/uL; ABSOLUTE MONOCYTE [1]: 65.33 CELLS/uL; ABSOLUTE SEGMENTED NEUTROPHIL [1]: 1499 CELLS/uL; BASOPHIL [1]: 0%; EOSINOPHIL [1]: 0%; ERYTHROCYTE COUNT [1]: 5.52 x10E6/uL; HEMATOCRIT [1]: 35.2%; HEMOGLOBIN [1]: 13.97 G/DL; LEUKOCYTE COUNT [1]: 17 x10E3/uL; LYMPHOCYTE [1]: 90.67%; MEAN CORPUSCULAR HEMOGLOBIN [1]: 25.3 pg; MEAN CORPUSCULAR HEMOGLOBIN CONCENTRATION [1]: 39.67 G/DL; MEAN CORPUSCULAR VOLUME [1]: 63.73 fL; MONOCYTE [1]: 0.33%; NEUTROPHIL [1]: 9%; NUCLEATED RED BLOOD CELLS [1]: 0 /100WBC; PLATELET COUNT [1]: 1287.67 x10E3/uL; ALANINE AMINOTRANSFERASE [1]: 54.67 u/L; ALBUMIN [1]: 4.27 G/DL; ALKALINE PHOSPHATASE [1]: 401.67 u/L; ASPARTATE AMINOTRANSFERASE [1]: 92.67 u/L; BLOOD UREA NITROGEN [1]: 14 mg/dL; CARBON DIOXIDE [1]: 24 mmol/L; CHLORIDE [1]: 103 MEQ/L; CHOLESTEROL [1]: 78.33 mg/dL; CREATINE PHOSPHOKINASE [1]: 294 u/L; CREATININE [1]: 0.15 mg/dL; GLUCOSE [1]: 150.67 mg/dL; LACTATE DEHYDROGENASE [1]: 445 u/L; LIPASE [1]: 9 u/L; PHOSPHORUS [1]: 13.6 mg/dL; POTASSIUM [1]: 6.91 MEQ/L; SODIUM [1]: 145.8 MEQ/L; TOTAL BILIRUBIN [1]: 0.17 mg/dL; TOTAL PROTEIN [1]: 6 G/DL; URIC ACID [1]: 1.4 mg/dL; ABSOLUTE BASOPHIL [2]: 0 CELLS/uL; ABSOLUTE EOSINOPHIL [2]: 240.33 CELLS/uL; ABSOLUTE LYMPHOCYTE [2]: 16960.67 CELLS/uL; ABSOLUTE MONOCYTE [2]: 310.67 CELLS/uL; ABSOLUTE SEGMENTED NEUTROPHIL [2]: 988.33 CELLS/uL; BASOPHIL [2]: 0%; EOSINOPHIL [2]: 1.33%; ERYTHROCYTE COUNT [2]: 5.25 x10E6/uL; HEMATOCRIT [2]: 33.97%; HEMOGLOBIN [2]: 13.6 G/DL; LEUKOCYTE COUNT [2]: 18.5 x10E3/uL; LYMPHOCYTE [2]: 91.67%; MEAN CORPUSCULAR HEMOGLOBIN [2]: 25.93 pg; MEAN CORPUSCULAR HEMOGLOBIN CONCENTRATION [2]: 40.07 G/DL; MEAN CORPUSCULAR VOLUME [2]: 64.73 fL; MONOCYTE [2]: 1.67%; NEUTROPHIL [2]: 5.33%; NUCLEATED RED BLOOD CELLS [2]: 0 /100WBC; PLATELET COUNT [2]: 1233.33 x10E3/uL; ALANINE AMINOTRANSFERASE [2]: 54.33 u/L; ALBUMIN [2]: 4.33 G/DL; ALKALINE PHOSPHATASE [2]: 383 u/L; ASPARTATE AMINOTRANSFERASE [2]: 84.33 u/L; BLOOD UREA NITROGEN [2]: 18 mg/dL; CARBON DIOXIDE [2]: 21 mmol/L; CHLORIDE [2]: 105 MEQ/L; CHOLESTEROL [2]: 63 mg/dL; CREATINE PHOSPHOKINASE [2]: 256.33 u/L; CREATININE [2]: 0.21 mg/dL; GLUCOSE [2]: 156.33 mg/dL; LACTATE DEHYDROGENASE [2]: 285 u/L; LIPASE [2]: 8 u/L; PHOSPHORUS [2]: 11.8 mg/dL; POTASSIUM [2]: 6.72 MEQ/L; SODIUM [2]: 146.17 MEQ/L; TOTAL BILIRUBIN [2]: 0.2 mg/dL; TOTAL PROTEIN [2]: 5.93 G/DL; URIC ACID [2]: 1.3 mg/dL; ABSOLUTE BASOPHIL [3]: 0 CELLS/uL; ABSOLUTE EOSINOPHIL [3]: 138 CELLS/uL; ABSOLUTE LYMPHOCYTE [3]: 17593 CELLS/uL; ABSOLUTE MONOCYTE [3]: 218.33 CELLS/uL; ABSOLUTE SEGMENTED NEUTROPHIL [3]: 4950.67 CELLS/uL; BASOPHIL [3]: 0%; EOSINOPHIL [3]: 0.67%; ERYTHROCYTE COUNT [3]: 5.25 x10E6/uL; HEMATOCRIT [3]: 33.23%; HEMOGLOBIN [3]: 12.93 G/DL; LEUKOCYTE COUNT [3]: 22.9 x10E3/uL; LYMPHOCYTE [3]: 77%; MEAN CORPUSCULAR HEMOGLOBIN [3]: 24.77 pg; MEAN CORPUSCULAR HEMOGLOBIN CONCENTRATION [3]: 38.97 G/DL; MEAN CORPUSCULAR VOLUME [3]: 63.5 fL; MONOCYTE [3]: 1%; NEUTROPHIL [3]: 21.33%; NUCLEATED RED BLOOD CELLS [3]: 0 /100WBC; PLATELET COUNT [3]: 1488 x10E3/uL; ALANINE AMINOTRANSFERASE [3]: 95 u/L; ALBUMIN [3]: 4.4 G/DL; ALKALINE PHOSPHATASE [3]: 368 u/L; ASPARTATE AMINOTRANSFERASE [3]: 112.67 u/L; BLOOD UREA NITROGEN [3]: 18.33 mg/dL; CARBON DIOXIDE [3]: 19.33 mmol/L; CHLORIDE [3]: 104 MEQ/L; CHOLESTEROL [3]: 47.33 mg/dL; CREATINE PHOSPHOKINASE [3]: 547 u/L; CREATININE [3]: 0.11 mg/dL; GLUCOSE [3]: 149.67 mg/dL; LACTATE DEHYDROGENASE [3]: 794 u/L; LIPASE [3]: 10 u/L; PHOSPHORUS [3]: 12 mg/dL; POTASSIUM [3]: 5.56 MEQ/L; SODIUM [3]: 142.2 MEQ/L; TOTAL BILIRUBIN [3]: 0.27 mg/dL; TOTAL PROTEIN [3]: 5.77 G/DL; URIC ACID [3]: 1.67 mg/dL; ABSOLUTE BASOPHIL [4]: 0 CELLS/uL; ABSOLUTE EOSINOPHIL [4]: 0 CELLS/uL; ABSOLUTE LYMPHOCYTE [4]: 8740 CELLS/uL; ABSOLUTE MONOCYTE [4]: 0 CELLS/uL; ABSOLUTE SEGMENTED NEUTROPHIL [4]: 2760 CELLS/uL; BASOPHIL [4]: 0%; EOSINOPHIL [4]: 0%; ERYTHROCYTE COUNT [4]: 5.33 x10E6/uL; HEMATOCRIT [4]: 31.3%; HEMOGLOBIN [4]: 12.1 G/DL; LEUKOCYTE COUNT [4]: 11.5 x10E3/uL; LYMPHOCYTE [4]: 76%; MEAN CORPUSCULAR HEMOGLOBIN [4]: 22.7 pg; MEAN CORPUSCULAR HEMOGLOBIN CONCENTRATION [4]: 38.7 G/DL; MEAN CORPUSCULAR VOLUME [4]: 58.8 fL; MONOCYTE [4]: 0%; NEUTROPHIL [4]: 24%; NUCLEATED RED BLOOD CELLS [4]: 2 /100WBC; PLATELET COUNT [4]: 1853 x10E3/uL; ALANINE AMINOTRANSFERASE [4]: 113 u/L; ALBUMIN [4]: 4.4 G/DL; ALKALINE PHOSPHATASE [4]: 238 u/L; ASPARTATE AMINOTRANSFERASE [4]: 86 u/L; BLOOD UREA NITROGEN [4]: 17 mg/dL; CARBON DIOXIDE [4]: 22 mmol/L; CHLORIDE [4]: 102 MEQ/L; CHOLESTEROL [4]: 58 mg/dL; CREATINE PHOSPHOKINASE [4]: 287 u/L; CREATININE [4]: 0.1 mg/dL; GLUCOSE [4]: 153 mg/dL; LACTATE DEHYDROGENASE [4]: 188 u/L; LIPASE [4]: 9 u/L; PHOSPHORUS [4]: 14.8 mg/dL; POTASSIUM [4]: 5.92 MEQ/L; SODIUM [4]: 141.9 MEQ/L; TOTAL BILIRUBIN [4]: 0.2 mg/dL; TOTAL PROTEIN [4]: 5.6 G/DL; URIC ACID [4]: 2.1 mg/dL
